Patent publication US8623859B2, “Bradykinin B1 antagonists” (Evotec AG, priority 2008, dated 2014)
pIC50: −log10 of the molar value. Where a name gives a salt, the structure may show the parent alone.

Target: T1, human B1 (Homo sapiens, UniProt P46663)
T1 construct: host or cells: CHO-K1
T1 sequence (P46663 1-353): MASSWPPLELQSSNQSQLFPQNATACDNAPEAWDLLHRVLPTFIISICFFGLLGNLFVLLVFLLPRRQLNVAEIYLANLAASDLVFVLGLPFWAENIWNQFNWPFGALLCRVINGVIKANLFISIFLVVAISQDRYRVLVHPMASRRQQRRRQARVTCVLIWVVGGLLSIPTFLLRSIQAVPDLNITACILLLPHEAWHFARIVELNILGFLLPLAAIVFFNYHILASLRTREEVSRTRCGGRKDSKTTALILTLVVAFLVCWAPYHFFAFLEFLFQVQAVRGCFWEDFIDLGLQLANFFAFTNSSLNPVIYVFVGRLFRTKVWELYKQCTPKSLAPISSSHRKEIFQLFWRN
Assay: Calcium flux assay for Bradykinin B1 antagonist, CHO-K1 cell line expressing human B1
Format: cell-based
Conditions: CHO-K1 cells expressing human B1, agonist Lys-(Des-Arg)-Bradykinin, read-out: Potency (IC50 value against human B1)
Outline: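 Inhibition of B1 agonist-evoked intracellular Ca2+ rise was followed by continuous fluorescence at 538 nm, with integrated, background-normalized signals plotted versus log compound concentration. Test compounds (eight 10-fold dilutions, triplicate, 1% DMSO final) were added 30 min at 25° C beforehand to Fluo-4AM-loaded human B1 CHO-K1 cells in pH 7.4 assay buffer.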

Structure (SMILES)	pIC50
COc1cc(C)c(S(=O)(=O)N(C)Cc2nnc(C(=O)N(C)Cc3ccc(CN4CC(OC)C4)cc3)o2)c(C)c1 [Ex 287, N-{4-[(3-Methoxyazetidin-1-yl)methyl]benzyl}-5-({[(4-methoxy-2,6-dimethylphenyl)sulfonyl](methyl)amino}methyl)-N-methyl-1,3,4-oxadiazole-2-carboxamide]	6.00 to 7.00
COc1cc(C)c(S(=O)(=O)N(C)Cc2cc(C(=O)NCCc3ccc(C4=NCCN4)cc3)co2)c(CO)c1 [Ex 86, N-{2-[4-(4,5-Dihydro-1H-imidazol-2-yl)phenyl]ethyl}-5-{[{[2-(hydroxymethyl)-4-methoxy-6-methylphenyl]sulfonyl}(methyl)amino]methyl}furan-3-carboxamide trifluoroacetate]	6.00 to 7.00
CN(Cc1cc(C(=O)NCc2ccc(CN3CCCC3)cc2)co1)S(=O)(=O)c1c(Cl)cc(Br)cc1Cl [Ex 27, 5-({[(4-bromo-2,6-dichlorophenyl)sulfonyl](methyl)amino}methyl)-N-[4-(pyrrolidin-1-ylmethyl)benzyl]furan-3-carboxamide]	6.00 to 7.00
COc1cc(C)c(S(=O)(=O)N(C)Cc2cc(C(=O)NC3CC(C)(C)N(C)C(C)(C)C3)co2)c(C)c1 [Ex 3, 5-({[(4-methoxy-2,6-dimethylphenyl)sulfonyl](methyl)amino}methyl)-N-(1,2,2,6,6-pentamethylpiperidin-4-yl)furan-3-carboxamide]	6.00 to 7.00
COc1cc(C)c(S(=O)(=O)N(Cc2nnc(C(=O)N3CCN(CC4CCCN(C)C4)CC3)o2)C2CC2)c(C)c1 (stereo not shown) [Ex 275, N-Cyclopropyl-4-methoxy-2,6-dimethyl-N-{[5-({4-[(1-methylpiperidin-3-yl)methyl]piperazin-1-yl}carbonyl)-1,3,4-oxadiazol-2-yl]methyl}benzenesulfonamide]	7.00 to 8.00
COc1cc(C)c(S(=O)(=O)N(C)Cc2cc(C(=O)N(C)Cc3ccc(-n4ccnc4)cc3)co2)c(C)c1 [Ex 2, N-[4-(1H-imidazol-1-yl)benzyl]-5-({[(4-methoxy-2,6-dimethylphenyl)sulfonyl](methyl)amino}methyl)-N-methylfuran-3-carboxamide]	6.00 to 7.00
COc1cc(C)c(S(=O)(=O)N(Cc2nc(C(=O)N3CCN(Cc4ccc(N5CCCC5)nc4)CC3)co2)C2CC2)c(C)c1 [Ex 237, N-Cyclopropyl-4-methoxy-2,6-dimethyl-N-{[4-({4-[(6-pyrrolidin-1-ylpyridin-3-yl)methyl]piperazin-1-yl}carbonyl)-1,3-oxazol-2-yl]methyl}benzenesulfonamide trifluoroacetate]	> 8.00
Cc1cc(S(=O)(=O)N(C)Cc2cc(C(=O)N(C)Cc3ccc(C4=NCCN4)cc3)co2)c(C)cc1Cl [Ex 20, 5-({[(4-chloro-2,5-dimethylphenyl)sulfonyl](methyl)amino}methyl)-N-[4-(4,5-dihydro-1H-imidazol-2-yl)benzyl]-N-methylfuran-3-carboxamide]	> 8.00
COc1cc(C)c(S(=O)(=O)N(Cc2nc(C(=O)N(C)Cc3ccc(CN4CC(OC)C4)cc3)co2)C2CC2)c(C)c1 [Ex 187, 2-({Cyclopropyl[(4-methoxy-2,6-dimethylphenyl)sulfonyl]amino}methyl)-N-{4-[(3-methoxyazetidin-1-yl)methyl]benzyl}-N-methyl-1,3-oxazole-4-carboxamide]	> 8.00
COc1cc(C)c(S(=O)(=O)N(C)Cc2nsc(C(=O)NCCc3ccc(C4=NCCN4)cc3)n2)c(C)c1 [Ex 63, N-{2-[4-(4,5-dihydro-1H-imidazol-2-yl)phenyl]ethyl}-3-({[(4-methoxy-2,6-dimethylphenyl)sulfonyl](methyl)amino}methyl)-1,2,4-thiadiazole-5-carboxamide]	> 8.00
COc1cc(C)c(S(=O)(=O)N(Cc2cc(C(=O)NCc3cccc(CN4CCCC4)c3)co2)C2CC2)c(C)c1 [Ex 54, 5-({Cyclopropyl[(4-methoxy-2,6-dimethylphenyl)sulfonyl]amino}methyl)-N-[3-(pyrrolidin-1-ylmethyl)benzyl]furan-3-carboxamide]	7.00 to 8.00
Cc1cccc(Cl)c1S(=O)(=O)N(Cc1nc(C(=O)N(C)CCc2ccc(C3=NCCN3)cc2)co1)C1CC1 [Ex 219, 2-({[(2-Chloro-6-methylphenyl)sulfonyl](cyclopropyl)amino}methyl)-N-{2-[4-(4,5-dihydro-1H-imidazol-2-yl)phenyl]ethyl}-N-methyl-1,3-oxazole-4-carboxamide trifluoroacetate]	7.00 to 8.00
COc1cc(C)c(S(=O)(=O)N(Cc2nc(C(=O)N3CCC(N(C)Cc4ccc(OC)nc4)C3)co2)C2CC2)c(C)c1 (stereo not shown) [Ex 212, N-Cyclopropyl-4-methoxy-N-({4-[(3-{[(6-methoxypyridin-3-yl)methyl](methyl)amino}pyrrolidin-1-yl)carbonyl]-1,3-oxazol-2-yl}methyl)-2,6-dimethylbenzenesulfonamide trifluoroacetate]	6.00 to 7.00
COc1cc(C)c(S(=O)(=O)N(C)Cc2cc(C(=O)NCc3ccc(Nc4nccc(N)n4)cc3)co2)c(C)c1 [Ex 14, N-{4-[(4-aminopyrimidin-2-yl)amino]benzyl}-5-({[(4-methoxy-2,6-dimethylphenyl)sulfonyl](methyl)amino}methyl)furan-3-carboxamide]	6.00 to 7.00
COc1cc(C)c(S(=O)(=O)N(Cc2nc(C(=O)N3CCN(Cc4ccc(F)nc4)CC3)co2)C2CC2)c(C)c1 [Ex 234, N-Cyclopropyl-N-{[4-({4-[(6-fluoropyridin-3-yl)methyl]piperazin-1-yl}carbonyl)-1,3-oxazol-2-yl]methyl}-4-methoxy-2,6-dimethylbenzenesulfonamide trifluoroacetate]	6.00 to 7.00
COc1cc(C)c(S(=O)(=O)N(Cc2cc(C(=O)N3CCN(C4CC(C)(C)N(C)C(C)(C)C4)CC3)co2)C2CC2)c(C)c1 [Ex 108, N-Cyclopropyl-4-methoxy-2,6-dimethyl-N-[(4-{[4-(1,2,2,6,6-pentamethylpiperidin-4-yl)piperazin-1-yl]carbonyl}furan-2-yl)methyl]benzenesulfonamide trifluoroacetate]	6.00 to 7.00
COc1cc(C)c(S(=O)(=O)N(C)Cc2nnc(C(=O)N(C)CCc3ccc(C4=NCCN4)cc3)o2)c(C)c1 [Ex 267, N-{2-[4-(4,5-Dihydro-1H-imidazol-2-yl)phenyl]ethyl}-5-({[(4-methoxy-2,6-dimethylphenyl)sulfonyl](methyl)amino}methyl)-N-methyl-1,3,4-oxadiazole-2-carboxamide]	> 8.00
COc1cc(C)c(S(=O)(=O)N(Cc2cc(C(=O)NCc3ccc(C4=NCCN4)cc3)co2)C2CC2)c(C)c1 [Ex 82, 5-({cyclopropyl[(4-methoxy-2,6-dimethylphenyl)sulfonyl]amino}methyl)-N-[4-(4,5-dihydro-1H-imidazol-2-yl)benzyl]furan-3-carboxamide trifluoroacetate]	6.00 to 7.00
COc1cc(C)c(S(=O)(=O)N(C)Cc2nc(C(=O)N3CCN(CCCN4CCCC4)CC3)no2)c(C)c1 [Ex 325, 4-Methoxy-N,2,6-trimethyl-N-[(3-{[4-(3-pyrrolidin-1-ylpropyl)piperazin-1-yl]carbonyl}-1,2,4-oxadiazol-5-yl)methyl]benzenesulfonamide]	7.00 to 8.00
COc1cc(C)c(S(=O)(=O)N(Cc2cc(C(=O)N(C)Cc3ccc(CN4CCC(O)C4)cc3)co2)C2CC2)c(C)c1 (stereo not shown) [Ex 141, 5-({Cyclopropyl[(4-methoxy-2,6-dimethylphenyl)sulfonyl]amino}methyl)-N-{4-[(3-hydroxypyrrolidin-1-yl)methyl]benzyl}-N-methylfuran-3-carboxamide]	7.00 to 8.00
COc1cc(C)c(S(=O)(=O)N(C)Cc2ccc(C(=O)N3CCN(C4CCN(C)CC4)CC3)o2)c(C)c1 [Ex 62, 4-Methoxy-N,2,6-trimethyl-N-[(5-{[4-(1-methylpiperidin-4-yl)piperazin-1-yl]carbonyl}furan-2-yl)methyl]benzenesulfonamide]	6.00 to 7.00
COc1cc(C)c(S(=O)(=O)N(Cc2nc(C(=O)N3CCN(CCCN(C)C)CC3)co2)C2CC2)c(C)c1 [Ex 196, N-Cyclopropyl-N-{[4-({4-[3-(dimethylamino)propyl]piperazin-1-yl}carbonyl)-1,3-oxazol-2-yl]methyl}-4-methoxy-2,6-dimethylbenzenesulfonamide trifluoroacetate]	> 8.00
COc1cc(C)c(S(=O)(=O)N(Cc2nc(C(=O)N3CCN(CC4CCCN(C)C4)CC3)co2)C2CC2)c(C)c1 (stereo not shown) [Ex 192, N-Cyclopropyl-4-methoxy-2,6-dimethyl-N-{[4-({4-[(1-methylpiperidin-3-yl)methyl]piperazin-1-yl}carbonyl)-1,3-oxazol-2-yl]methyl}benzenesulfonamide trifluoroacetate]	> 8.00
COc1cc(C)c(S(=O)(=O)N(C)Cc2nnc(C(=O)N3CCN(CC4CCN(C(C)C)CC4)CC3)o2)c(C)c1 [Ex 264, 4-Methoxy-N,2,6-trimethyl-N-({5-[(4-{[1-(1-methylethyl)piperidin-4-yl]methyl}piperazin-1-yl)carbonyl]-1,3,4-oxadiazol-2-yl}methyl)benzenesulfonamide trifluoroacetate]	6.00 to 7.00
COc1cc(C)c(S(=O)(=O)N(C)Cc2noc(C(=O)NCCc3ccc(C4=NCCN4)cc3)n2)c(C)c1 [Ex 64, N-{2-[4-(4,5-dihydro-1H-imidazol-2-yl)phenyl]ethyl}-3-({[(4-methoxy-2,6-dimethylphenyl)sulfonyl](methyl)amino}methyl)-1,2,4-oxadiazole-5-carboxamide]	> 8.00
